{
  "source": "patent US4970199A",
  "about": "“Steroidal glycolipids as host resistance stimulators against viral infection” (priority 1989, dated 1990)",
  "key": {"Pseudomonas aeruginosa": {"tested_on": "Pseudomonas aeruginosa", "assay": "Stimulation of host resistance: protection of cyclophosphamide-immunocompromised mice from Pseudomonas aeruginosa infection", "type": "in vivo, Pseudomonas aeruginosa (Immunotype 1), in CF1 female mice", "conditions": "Table 3, CY-treated mice, dose not printed in table (initial test dose 40 mg per kg)", "description": "Groups of 15-20 CF1 female mice (Charles River Breeding, Cambridge, Mass.) weighing 22-28 gm were injected intraperitoneally (i.p.) with cyclophosphamide (Cytoxan; CY) at 250 mg per kg body weight. One to two hours later they were typically injected again with the test material by the route specified. Four days later, the mice were divided into groups of five, each of which were injected i.p. with a different dilution of a suspension of Pseudomonas aeruginosa (Immunotype 1). The number of survivors was determined periodically and an estimate was made of the number of CFU of Pseudomonas organisms necessary to cause 50% lethality by the cumulative method of L. J. Reed and H. Muench (Am. J. Hygiene 27 (1938) 493-497). A protective index (P.I.) was defined as the LD50 for the mice receiving cyclophosphamide and the test compound divided by the LD50 for the mice receiving cyclophosphamide alone. All control mice were injected with aqueous vehicle in the same route and schedule as the test animals.\nMATERIALS. All compounds for dosing were suspended in a sterile medium referred to as \"aqueous vehicle\" which contains 0.9% sodium chloride, 0.5% carboxymethyl cellulose, 0.4% Tween 80, and 0.9% benzyl alcohol unless otherwise stated. Test materials were evaluated via subcutaneous (s.c.), i.p., intramuscular (i.m.), orally (p.o.). and intravenous (i.v.) routes of administration. […]"}, "HIV [1]": {"tested_on": "HIV", "conditions": "cited from earlier work"}, "[2]": {"conditions": "cited from earlier work"}, "[3]": {"conditions": "cited from earlier work", "remark": "listed apart in the source"}, "HIV [4]": {"tested_on": "HIV", "conditions": "clinical trials; cited from earlier work"}, "[5]": {"tested_on": "Mycobacterium avium-intracellulare", "conditions": "human, in vivo; cited from earlier work"}, "[6]": {"tested_on": "reverse transcriptase in several retroviruses", "conditions": "in vitro; cited from earlier work"}, "[7]": {"tested_on": "human immunodeficiency virus (HIV)", "conditions": "cited from earlier work"}, "Kaposi's sarcoma": {"tested_on": "Kaposi's sarcoma", "conditions": "in vivo; cited from earlier work"}, "[8]": {"tested_on": "Herpes Simplex Virus-1 (HSV1)", "assay": "Antiviral experiment in mice infected IP with Herpes Simplex Virus-1", "type": "in vivo, HSV1 (Schloser), in ICR mice", "description": "An antiviral experiment was conducted to compare treatment with 6-(5-Cholesten-3β-yloxy)hexyl 1-thio-β-D-mannopyranoside (Example 2) in mice infected IP with Herpes Simplex Virus-1 (HSV1) immediately before (post treatment) or after 5 days of treatment (pretreatment).\nTen mice (ICR, 20 gm, mixed sexes) were pretreated by SC injection of a 0.1 mL suspension of test compound twice a day for 4 days. On day 5, the mice were injected IP with 0.5 mL solution of HSV1 (Schloser, 10-5). The post treatment group was infected with HSV1 prior to administration of test compound. Day of death from time of infection with HSV1 was recorded for each mouse and average day of death per treatment group was calculated."}},
  "note": "“Also recorded” adds a separate entry of the source.",
  "data": [
    {"compound": "CC[C@H](/C=C/[C@@H](C)[C@H]1CC[C@H]2[C@@H]3CC=C4C[C@@H](OCCCCCCS[C@@H]5O[C@H](CO)[C@@H](O)[C@H](O)[C@@H]5O)CC[C@]4(C)[C@H]3CC[C@]12C)C(C)C", "note": "[Example 6, 6-(Stigmasta-5,22-dien-3β-yloxy)hexyl 1-thio-β-D-mannopyranoside]", "values": [
      {"measurement": "Protective Index (log)", "setting": "Pseudomonas aeruginosa", "result": 2.0, "unit": "log"}
    ]},
    {"compound": "Cc1cn([C@H]2C[C@H](N=[N+]=[N-])[C@@H](CO)O2)c(=O)[nH]c1=O", "note": "[AZT, 3'-azido-3'-deoxythymidine]", "values": [
      {"measurement": "prolonging lives of patients with AIDS or ARC", "setting": "HIV [1]; human, in vivo", "result": "show promise in prolonging lives of patients with AIDS or AIDS-related complex (ARC)"},
      {"measurement": "half-life in the body", "setting": "[2]; in vivo", "result": "relatively short half-life in the body"},
      {"measurement": "oral absorption", "setting": "[2]; oral", "result": "Well absorbed orally"},
      {"measurement": "toxicity", "setting": "[3]; in vivo", "result": "some toxicity, with anemia and headaches"}
    ]},
    {"compound": "CC(=O)NC(C)C1CCC2C3CC=C4CC(OCCCCCCSC5OC(CO)C(O)C(O)C5O)CCC4(C)C3CCC12C", "note": "[Example 11, 6-(20S-Acetamido-pregn-5-en-3β-yloxy)hexyl 1-thio-β-D-mannopyranoside]", "values": [
      {"measurement": "Protective Index (log)", "setting": "Pseudomonas aeruginosa", "result": 3.0, "unit": "log"}
    ]},
    {"compound": "NC(=O)c1ncn([C@@H]2O[C@H](CO)[C@@H](O)[C@H]2O)n1", "note": "[Ribavirin, 1-β-D-ribofuranosyl-1,2,4-triazole-3-carboxamide]", "values": [
      {"measurement": "immune function in ARC or AIDS patients", "setting": "HIV [1]; human, in vivo", "result": "improved immune function in AIDS patients"},
      {"measurement": "HIV reproduction / viral replication in patients", "setting": "HIV [4]", "result": "inhibited viral replication"},
      {"measurement": "safety profile", "setting": "[3]; in vivo", "result": "acceptable"},
      {"measurement": "tolerability", "setting": "[3]; in vivo", "result": "well tolerated"}
    ]},
    {"compound": "O=C(O)P(=O)(O)O", "note": "[Foscarnet, trisodium phosphonoformate]", "values": [
      {"measurement": "side effects", "setting": "[3]; in vivo", "result": "serious side effects"}
    ]},
    {"compound": "CO[C@H]1/C=C/O[C@@]2(C)Oc3c(C)c(O)c4c(c3C2=O)C2=NC3(CCN(CC(C)C)CC3)NC2=C(NC(=O)/C(C)=C\\C=C\\[C@H](C)[C@H](O)[C@@H](C)[C@@H](O)[C@@H](C)[C@H](OC(C)=O)[C@@H]1C)C4=O", "note": "[Ansamycin, rifabutin]", "values": [
      {"measurement": "efficacy in AIDS patients with opportunistic infection", "setting": "[5]", "result": "some efficacy in treating AIDS patients with an opportunistic infection"}
    ]},
    {"compound": "Cc1ccc(C(=O)Nc2ccc(S(=O)(=O)O)c3cc(S(=O)(=O)O)cc(S(=O)(=O)O)c23)cc1NC(=O)c1cccc(NC(=O)Nc2cccc(C(=O)Nc3cc(C(=O)Nc4ccc(S(=O)(=O)O)c5cc(S(=O)(=O)O)cc(S(=O)(=O)O)c45)ccc3C)c2)c1", "note": "[Suramin]", "values": [
      {"measurement": "therapeutic benefit or clinical improvement in AIDS patients", "setting": "HIV [1]", "result": "little or no evidence of clinical improvement or immunologic recovery"}
    ]},
    {"compound": "CC(C)(S)[C@@H](N)C(=O)O", "note": "[D-Penicillamine, 3-mercapto-D-valine]", "values": [
      {"measurement": "HIV reproduction / viral replication in patients", "setting": "HIV [4]", "result": "Inhibits HIV reproduction in humans; also recorded: suppressed the virus"}
    ]},
    {"compound": "ammonium 21-tungsto-9-antimoniate [HPA-23]", "values": [
      {"measurement": "therapeutic benefit or clinical improvement in AIDS patients", "setting": "HIV [1]", "result": "no therapeutic benefit has been documented in AIDS patients"},
      {"measurement": "reverse transcriptase inhibition, several retroviruses", "setting": "[6]", "result": "Inhibits reverse transcriptase in several retroviruses in vitro"},
      {"measurement": "growth of HIV", "setting": "[7]", "result": "some tendency to check the growth of HIV"}
    ]},
    {"compound": "α-Interferon", "values": [
      {"measurement": "growth of HIV", "setting": "[7]", "result": "Checks the growth of HIV in vitro"},
      {"measurement": "tumor regression in AIDS-related Kaposi's sarcoma", "setting": "Kaposi's sarcoma", "result": "induced tumor regression in some AIDS-related Kaposi's sarcoma cases"}
    ]},
    {"compound": "CC(C)(N1CC1C#N)N1CC1C(N)=O", "note": "(stereo not drawn) [Azimexon]", "values": [
      {"measurement": "symptoms and immune function", "setting": "HIV [1]; early trial, ARC and AIDS patients", "result": "improvements in symptoms and immune function in patients with ARC but not AIDS"},
      {"measurement": "toxic effect", "setting": "[3]; early trial, disappeared when treatment ceased", "result": "only toxic effect was mild hemolysis"}
    ]},
    {"compound": "CC(=O)Nc1ccc(C(=O)O)cc1.CC(=O)Nc1ccc(C(=O)O)cc1.CC(=O)Nc1ccc(C(=O)O)cc1.CC(O)CN(C)C.CC(O)CN(C)C.CC(O)CN(C)C.O=c1[nH]cnc2c1ncn2[C@@H]1O[C@H](CO)[C@@H](O)[C@H]1O", "note": "[Inosine pranobex]", "values": [
      {"measurement": "immune function in ARC or AIDS patients", "setting": "HIV [1]; human, in vivo", "result": "improve immune function in ARC patients"}
    ]},
    {"compound": "CC(C)CCC[C@@H](C)[C@H]1CC[C@H]2[C@@H]3CC=C4C[C@@H](OCCCCCCS[C@@H]5O[C@H](CO)[C@@H](O)[C@H](O)[C@@H]5O)CC[C@]4(C)[C@H]3CC[C@]12C", "note": "[Example 2, 6-(5-Cholesten-3β-yloxy)hexyl 1-thio-β-D-mannopyranoside]", "values": [
      {"measurement": "protection from fatal viral infection over placebo treated animals, by day of death", "setting": "[8]; 50 mg/kg twice a day for four days", "result": "statistically enhanced protection from fatal viral infection over placebo treated animals"},
      {"measurement": "protection of pretreated mice over the post treatment group", "setting": "[8]; pretreatment vs post treatment", "result": "statistically enhanced protection over the post treatment group"}
    ]}
  ]
}
